Results on 10 compounds are retold here after US20200239921A1, “CHEMOENZYMATIC SYNTHESIS OF S-NUCLEOSYL AMINO ACIDS (SNA), ANALOGS OF S-ADENOSYL-L-METHIONINE AND S-ADENOSYL-L- HOMOCYSTEINE AND USES THEREOF” (ALBERT EINSTEIN COLLEGE OF MEDICINE, priority 2016, published 2020).

SMILES strings stand for the structures.

The test system of assay [1] is AK/MK/PK enzymatic system. Put plainly: AK/MK/PK enzymatic conversion to nucleoside triphosphate. The format is biochemical.
Assay [2] deals with T1, S-adenosyl-L-homocysteine hydrolase from Lupinus luteus (L/SAHH) (Lupinus luteus, UniProt Q9SP37).
T1 construct: made in house; host or cells: E. coli
T1 sequence (Q9SP37 1-485): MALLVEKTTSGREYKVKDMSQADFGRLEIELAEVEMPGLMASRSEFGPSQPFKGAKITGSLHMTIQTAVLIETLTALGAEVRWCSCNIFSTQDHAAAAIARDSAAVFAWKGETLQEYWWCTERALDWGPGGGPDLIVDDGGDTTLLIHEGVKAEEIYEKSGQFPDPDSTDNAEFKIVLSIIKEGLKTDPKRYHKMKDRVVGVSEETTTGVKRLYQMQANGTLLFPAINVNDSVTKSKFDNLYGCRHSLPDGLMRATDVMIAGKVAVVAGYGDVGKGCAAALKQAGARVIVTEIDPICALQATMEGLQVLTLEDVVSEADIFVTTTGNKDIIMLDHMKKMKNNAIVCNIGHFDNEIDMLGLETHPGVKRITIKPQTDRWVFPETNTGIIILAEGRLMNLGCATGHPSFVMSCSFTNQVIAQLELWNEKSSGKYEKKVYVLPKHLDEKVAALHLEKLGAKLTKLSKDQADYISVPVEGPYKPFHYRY
Put plainly: SAHH-catalysed synthesis of SAH analogs. Conditions: in vitro, reaction displaced toward SAH production. The format is biochemical. An excerpt:
Alternative chemoenzymatic routes. A few SNA probes are difficult to prepare. To broaden the substrate diversity, the reversible reaction catalyzed by S-adenosyl-L-homocysteine hydrolase from Lupinus luteus (L/SAHH) that is displaced toward SAH production in vitro was used (FIG. 5B). […] This powerful catalyst was a useful tool for production of S-nucleosyl-L-homocysteine and S-nucleosyl-L-cysteine analogs (SNH and SNC, respectively). Unlike SAM analogs, SNH and SNC probes are not substrates for PRMTs, so they are assayed as competitive inhibitors.

Assay [3] has as its target T2, Methanococcus jannaschii MAT (MjMAT) (Methanocaldococcus jannaschii, UniProt Q58605).
T2 construct: made in house; host or cells: E. coli
T2 sequence (Q58605 1-406): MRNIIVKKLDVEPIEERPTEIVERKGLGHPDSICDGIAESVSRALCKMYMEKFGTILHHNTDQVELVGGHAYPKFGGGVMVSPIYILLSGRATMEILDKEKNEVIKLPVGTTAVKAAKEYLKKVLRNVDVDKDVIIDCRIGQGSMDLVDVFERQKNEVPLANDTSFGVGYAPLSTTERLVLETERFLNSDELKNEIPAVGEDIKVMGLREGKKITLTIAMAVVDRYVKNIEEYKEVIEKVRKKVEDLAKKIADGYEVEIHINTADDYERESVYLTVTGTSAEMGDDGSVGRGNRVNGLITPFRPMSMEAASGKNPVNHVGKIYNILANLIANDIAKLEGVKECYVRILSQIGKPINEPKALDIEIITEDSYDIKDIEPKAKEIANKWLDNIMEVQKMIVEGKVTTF
Put plainly: MjMAT substrate specificity (HPLC). The class given is biochemical. Conditions: in the presence of ATP. On the procedure:
Synthetic chemical approaches yield a 1:1 mixture of the two SAM stereoisomers (FIG. 4A, shaded middle frame). The enzymes that catalyze the formation of SAM from ATP and L-methionine in vivo are used to produce SAM analogs (MAT; FIG. 4A, top enzymatic approach). Adenosine phosphorylation is performed by kinases (e.g. adenosine kinase ‘AK’, myokinase ‘MK’ and pyruvate kinase ‘PK’; FIG. 4, top enzymatic approach). MAT proteins are well characterized and several mechanistic and structural biology reports make these enzymes the preferred biocatalyst for rapid access to SAM analogs. Methanococcus jannaschii MAT has been purified (MjMAT; FIG. 4B).
(§1) An enzyme array to incorporate a broad spectrum of methionine analogs. To expand the SNA library, the reactivity of several methionine analogs (FIG. 4C, amino-acid tail labelled ‘METHIONINE’) was screened toward MjMAT in the presence of ATP. […] MAT enzymes from Neisseria meningitidis (Nm) and Campylobacter jejuni (Cj) (FIG. 4B) were expressed and purified.

Assay [4] deals with MAT from Campylobacter jejuni (CjMAT). Description: CjMAT methionine analog specificity. The format is biochemical. To be noted: FIG. 6.
From the text: as §1

Assay [5] has as its system MAT from Neisseria meningitidis (NmMAT). Put plainly: NmMAT methionine analog specificity. The class given is biochemical. Conditions: FIG. 6.
From the text: as §1

The target in assay [6] is T3, SAM-dependent chlorinase from Salinispora tropica (StSalL) (Salinispora tropica, UniProt A4X3Q0).
T3 construct: made in house; host or cells: E. coli
T3 sequence (A4X3Q0 1-283): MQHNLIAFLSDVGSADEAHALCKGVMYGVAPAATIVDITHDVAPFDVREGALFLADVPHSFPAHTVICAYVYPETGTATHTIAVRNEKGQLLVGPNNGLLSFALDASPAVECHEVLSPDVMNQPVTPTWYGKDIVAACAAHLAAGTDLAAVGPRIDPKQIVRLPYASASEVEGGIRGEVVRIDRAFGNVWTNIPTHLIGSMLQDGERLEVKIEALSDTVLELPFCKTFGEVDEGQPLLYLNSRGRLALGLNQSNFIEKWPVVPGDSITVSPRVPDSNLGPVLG
Put plainly: StSalL methionine analog specificity. The format is biochemical. Conditions: in the presence of 5′-chloro-5′-deoxy adenosine. The procedure:
The unique SAM-dependent chlorinase from the marine organism Salinispora tropica (StSalL) is a key enzyme for salinosporamide A biosynthesis. Although the occurrence of high chloride concentration (i.e. 546 mM) in sea water shifts the chemical equilibrium away from SAM synthesis, this reaction is reversible in vitro. StSalL (FIG. 4B) was expressed and purified, and the methionine analog specificity for this enzyme was determined in the presence of 5′-chloro-5′-deoxy adenosine (5′-ClDA; FIG. 6).

In assay [7] the test system is PRMT1. To be noted: cited from earlier work.
Assay [8] concerns methyltransferases. To be noted: FIG. 2 first row from table; cited from earlier work.

Consider `Nc1ncnc2c1ncn2[C@@H]1O[C@H](CO)[C@@H](O)[C@@H]1F` [942′-deoxy-2′-fluoro-β-D-arabinofuranosylladenine], for which the “reactivity in AK/MK/PK enzymatic system” value in assay [1] is on record as “low reactivity”.
With `N[C@@H](CS)C(=O)O` [L-cysteine], in assay [2], the “utilization as substrate by SAHH” value is “could utilize”.
Regarding `N[C@@H](CCS)C(=O)O` [L-homocysteine], the “utilization as substrate by SAHH” value in assay [2] is “could utilize”.
`CSCC[C@H](N)C(=O)O` [M0, L-methionine]: the “reactivity of methionine analog toward MjMAT” value in assay [3] is “efficiently processed”.
Still for that read-out and setting: the same measure for `CSCC[C@@H](N)C(=O)O` [M1, D-methionine]: “efficiently processed”.
Take `CSCC[C@](C)(N)C(=O)O` [M2, α-methyl-methionine]: the “reactivity of methionine analog toward CjMAT” value in assay [4] is “substrate”. Also, the “reactivity of methionine analog toward NmMAT” value in assay [5] was “substrate”.
In the case of `CSCC[C@H](N)CO` [M3, (S)-(−)-methioniol], in assay [4], the “reactivity of methionine analog toward CjMAT” value is recorded as “excellent substrate”.
Consider `CSCCC(O)C(=O)O` (centres unmarked) [M4, 2-hydroxy-4-(methylthio) butanoic acid], for which the “reactivity of methionine analog toward MjMAT” value in assay [3] is reported as “reactivity was not observed”. In assay [4], the “reactivity of methionine analog toward CjMAT” value is reported as “reactivity was not observed”. The “reactivity of methionine analog toward NmMAT” value in assay [5] was “reactivity was not observed”. For the same compound, the “reactivity of methionine analog toward StSalL” value in assay [6] was “Reactivity was observed”.
For `NCCCSC[C@H]1O[C@@H](n2cnc3c(N)ncnc32)[C@H](O)[C@@H]1O` [S-(5′-adenosyl)-3-thiopropylamine], the “selectivity for PRMT1 over PRMT6” value in assay [7] was 10 fold.
For `Nc1ncnc2c1ncn2[C@@H]1O[C@H](CSCC[C@H](N)C(=O)O)[C@@H](O)[C@H]1O` [SAH, S-adenosyl-L-homocysteine], in assay [8], the “inhibition of methyltransferases (in words)” value is “potent, yet non-specific, inhibitor of methyltransferases”.
